Experimental findings from article PMC6041819, “Synthesis of novel benzenesulfamide derivatives with inhibitory activity against human cytosolic carbonic anhydrase I and II and Vibrio cholerae α- and β-class enzymes” (Journal of Enzyme Inhibition and Medicinal Chemistry, 2018) are described below.

The structures appear in SMILES notation.

Assay in all cases: stopped-flow CO2 hydrase assay
What all share (assay type): biochemical

The target of one assay is T1, VchCAα (Vibrio cholerae, UniProt Q9KMP6).
T1 construct: gene VC_A0274
T1 sequence (Q9KMP6 21-239 limits assumed): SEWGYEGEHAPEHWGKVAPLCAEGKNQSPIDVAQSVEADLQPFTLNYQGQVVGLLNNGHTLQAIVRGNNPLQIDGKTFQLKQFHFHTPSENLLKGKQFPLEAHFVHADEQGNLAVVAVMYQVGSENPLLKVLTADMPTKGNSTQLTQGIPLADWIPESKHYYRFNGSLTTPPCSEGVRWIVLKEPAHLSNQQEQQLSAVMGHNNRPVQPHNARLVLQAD

The target in a further assay is T2, hCA I (Homo sapiens, UniProt P00915).
T2 construct: gene CA1; recombinant, obtained in-house; cytosolic isoform
T2 sequence (P00915 2-261): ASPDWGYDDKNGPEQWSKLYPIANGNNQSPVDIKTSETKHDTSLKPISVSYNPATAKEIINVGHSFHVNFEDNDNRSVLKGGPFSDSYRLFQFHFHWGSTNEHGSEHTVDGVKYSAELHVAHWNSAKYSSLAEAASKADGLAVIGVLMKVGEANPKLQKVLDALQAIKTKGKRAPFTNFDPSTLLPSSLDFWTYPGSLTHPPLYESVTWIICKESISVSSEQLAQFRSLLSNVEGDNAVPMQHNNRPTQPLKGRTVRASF
The source says: stopped-flow CO2 hydrase assay on hCA I

A further assay addresses T3, VchCAβ (Vibrio cholerae, UniProt Q9KUD6).
T3 construct: gene VC_0586

Another assay addresses T4, hCA II (Homo sapiens, UniProt P00918).
T4 construct: gene CA2; recombinant, obtained in-house; cytosolic isoform
The text has this: stopped-flow CO2 hydrase assay on hCA II

T3 sequence (Q9KUD6 1-222): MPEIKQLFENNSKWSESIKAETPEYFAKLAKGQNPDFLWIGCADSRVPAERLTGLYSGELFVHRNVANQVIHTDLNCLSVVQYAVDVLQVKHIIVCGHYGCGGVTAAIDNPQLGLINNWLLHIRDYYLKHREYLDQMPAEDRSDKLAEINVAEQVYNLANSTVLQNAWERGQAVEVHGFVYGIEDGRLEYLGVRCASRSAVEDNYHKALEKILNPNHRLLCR

Usually Ki stands for a dissociation constant, usually derived from enzyme kinetics or from competition with a known ligand. As to `NS(=O)(=O)Nc1cccc(S(=O)(=O)N2CCN(C(c3ccccc3)c3ccccc3)CC2)c1` [6a, 1-Benzhydryl-4-((3-sulfamoylaminophenyl)sulfonyl)piperazine], the Ki at VchCAα was 334 nM; at hCA I, 66.2 nM; on VchCAβ it was 4680 nM; at hCA II, 417 nM.

Turning to `NS(=O)(=O)Nc1ccc(S(=O)(=O)N2CCC(C(=O)N3CCN(C(c4ccc(F)cc4)c4ccc(F)cc4)CC3)CC2)cc1` [6p, (4-(bis(4-Fluorophenyl)methyl)piperazin-1-yl)(1-((4-sulfamo-ylaminophenyl)sulfonyl)piperidin-4-yl)methanone], the inhibition constant Ki at VchCAα amounted to 398 nM; at hCA I, 49.1 nM; at VchCAβ it was 4530 nM; on hCA II, 182 nM.

Take `NS(=O)(=O)Nc1cccc(S(=O)(=O)N2CCC(C(=O)N3CCN(C(c4ccccc4)c4ccccc4)CC3)CC2)c1` [6f, (4-Benzhydrylpiperazin-1-yl)(1-((3-sulfamoylaminophenyl)sulfonyl)piperidin-4-yl)methanone]: the Ki at VchCAα was 654 nM; at hCA I it was 43.1 nM; at VchCAβ, 3790 nM; on hCA II, 576 nM.

With `NS(=O)(=O)Nc1ccc(S(=O)(=O)N2CCC(C(=O)N3CCN(C(c4ccccc4)c4ccccc4)CC3)CC2)cc1` [6g, (4-Benzhydrylpiperazin-1-yl)(1-((4-sulfamoylaminophenyl)sulfonyl)piperidin-4-yl)methanone], the inhibition constant (Ki) is 140 nM at VchCAα, 601 nM at hCA I, 2540 nM at VchCAβ and 227 nM at hCA II.

For the compound `NS(=O)(=O)Nc1ccccc1S(=O)(=O)NCC(=O)N1CCN(C(c2ccccc2)c2ccccc2)CC1` [6c, N-(2-(4-Benzhydrylpiperazin-1-yl)-2-oxoethyl)-2-(sulfamoylamino)benzenesulfonamide], the Ki at VchCAα is 931 nM; at hCA I, 840 nM; at VchCAβ, greater than 10000 nM; at hCA II, 850 nM.

Regarding `NS(=O)(=O)Nc1ccccc1S(=O)(=O)NCC(=O)N1CCN(C(c2ccc(F)cc2)c2ccc(F)cc2)CC1` [6k, N-(2-(4-(bis(4-Fluorophenyl)methyl)piperazin-1-yl)-2-oxoethyl)-2-(sulfamoylamino)benzenesulfonamide], the inhibitory constant (Ki) on VchCAα was 1750 nM; on hCA I, 338 nM; on VchCAβ it was greater than 10000 nM; at hCA II, 1430 nM.

On to `NS(=O)(=O)Nc1cccc(S(=O)(=O)NCC(=O)N2CCN(C(c3ccccc3)c3ccccc3)CC2)c1` [6d, N-(2-(4-Benzhydrylpiperazin-1-yl)-2-oxoethyl)-3-(sulfamoylamino)benzenesulfonamide], for which the inhibitory constant (Ki) on VchCAα turned out to be 95.7 nM; on hCA I it was 58.1 nM; at VchCAβ, 3780 nM; at hCA II, 396 nM.

For `NS(=O)(=O)Nc1ccccc1S(=O)(=O)N1CCC(C(=O)N2CCN(C(c3ccccc3)c3ccccc3)CC2)CC1` [6e, (4-Benzhydrylpiperazin-1-yl)(1-((2-sulfamoylaminophenyl)sulfonyl)piperidin-4-yl)methanone], the inhibition constant Ki is 879 nM at VchCAα, 578 nM on hCA I, greater than 10000 nM on VchCAβ and 1360 nM on hCA II.

`NS(=O)(=O)Nc1ccccc1S(=O)(=O)N1CCC(C(=O)N2CCN(C(c3ccc(F)cc3)c3ccc(F)cc3)CC2)CC1` [6n, (4-(bis(4-Fluorophenyl)methyl)piperazin-1-yl)(1-((2-sulfamo-ylaminophenyl)sulfonyl)piperidin-4-yl)methanone]: the inhibitory constant (Ki) on VchCAα is 3750 nM; at hCA I, 683 nM; on VchCAβ, greater than 10000 nM; on hCA II, 590 nM.

In the case of `NS(=O)(=O)Nc1cccc(S(=O)(=O)N2CCC(C(=O)N3CCN(C(c4ccc(F)cc4)c4ccc(F)cc4)CC3)CC2)c1` [6o, (4-(bis(4-Fluorophenyl)methyl)piperazin-1-yl)(1-((3-sulfamoylaminophenyl)sulfonyl)piperidin-4-yl)methanone], the inhibitory constant (Ki) on VchCAα was 497 nM; at hCA I, 72 nM; on VchCAβ, 1580 nM; at hCA II, 663 nM.

`NS(=O)(=O)Nc1ccc(S(=O)(=O)NCC(=O)N2CCN(C(c3ccc(F)cc3)c3ccc(F)cc3)CC2)cc1` [6m, N-(2-(4-(bis(4-Fluorophenyl)methyl)piperazin-1-yl)-2-oxoethyl)-4-(sulfamoylamino)benzene sulfonamide]: the Ki on VchCAα turned out to be 106 nM; at hCA I it was 47.8 nM; on VchCAβ it was 4670 nM; on hCA II, 208 nM.

Consider `NS(=O)(=O)Nc1cccc(S(=O)(=O)N2CCN(C(c3ccc(F)cc3)c3ccc(F)cc3)CC2)c1` [6i, 1-(Bis(4-Fluorophenyl)methyl)-4-((3-sulfamoylaminophenyl)sulfonyl)piperazine], for which the inhibitory constant (Ki) at VchCAα was 588 nM; at hCA I, 75 nM; at VchCAβ, 1740 nM; at hCA II it was 389 nM.

For the compound `NS(=O)(=O)Nc1ccc(S(=O)(=O)N2CCN(C(c3ccccc3)c3ccccc3)CC2)cc1` [6b, 1-Benzhydryl-4-((4-sulfamoylaminophenyl)sulfonyl)piperazine], the inhibitory constant (Ki) on VchCAα was found to be 236 nM; at hCA I, 555 nM; at VchCAβ, 1880 nM; on hCA II it was 359 nM.

With `NS(=O)(=O)Nc1ccc(S(=O)(=O)N2CCN(C(c3ccc(F)cc3)c3ccc(F)cc3)CC2)cc1` [6j, 1-(Bis(4-Fluorophenyl)methyl)-4-((4-sulfamoylaminophenyl)sulfonyl)piperazine], the inhibition constant (Ki) at VchCAα was 274 nM; at hCA I, 64.6 nM; on VchCAβ it was 4350 nM; on hCA II, 353 nM.

For the compound `NS(=O)(=O)Nc1ccccc1S(=O)(=O)N1CCN(C(c2ccc(F)cc2)c2ccc(F)cc2)CC1` [6h, 1-(Bis(4-Fluorophenyl)methyl)-4-((2-sulfamoylaminophenyl)sulfonyl)piperazine], the Ki at VchCAα was 2800 nM; on hCA I it was 843 nM; at VchCAβ, greater than 10000 nM; at hCA II it was 1170 nM.

For `NS(=O)(=O)Nc1cccc(S(=O)(=O)NCC(=O)N2CCN(C(c3ccc(F)cc3)c3ccc(F)cc3)CC2)c1` [6l, N-(2-(4-(bis(4-Fluorophenyl)methyl)piperazin-1-yl)-2-oxoethyl)-3-(sulfamoylamino)benzenesulfonamide], the inhibition constant Ki was 91.4 nM on VchCAα, 71.1 nM at hCA I, greater than 10000 nM at VchCAβ and 218 nM at hCA II.
